Source: patent US4657927A, “Malonato platinum compounds” (Research Corporation, priority 1983, dated 1987)

Key:
Sarcoma 180 [1] = assay: Antitumor activity, solid sarcoma 180 tumor, T/C of tumor weights at day 10 (Table I); assay type: in vivo, female Swiss white mice; conditions: single i.p. injection day 1, slurry in H2O
Description: The compounds of the invention were tested for antitumor activity, i.e., for sensitivity to a planar dsp^2 platinum(II) coordination compound or an octahedral d^2 sp^3 platinum(IV) coordination compound using our standard screening tumor, solid sarcoma 180 tumor in female Swiss white mice, following standard protocols for this testing as set by the National Cancer Institute. (Cancer Chemotherapy Rep., 25 (1962)).
For these tests an S 180 tumor taken from a sacrificed mouse was disected free of superfluous tissue and cut under sterile conditions into approximately 10 milligram size pieces. These tissue pieces were then implanted by trocar in the left axillary region, subcutaneously, in new mice. The mice were, on the average, approximately four weeks old and weighed 18-20 grams. Taking day 0 as the day of implant, the animals were sacrificed on day 10. The tumors were excised and weighed and the ratio of the weights of the tumors in mice in the treated animals to the control set of animals was obtained. This ratio, multiplied by 100, is given as the T/C ratio in Table I.
For the first set of tests the coordination compound was freshly dissolved in sterile distilled water and injected intraperitoneally on day 1 into each of the test mice. The volume of the injection was usually 1/2 ml. In some cases, in order to get an active dose into the animal where the chemical was not soluble in this amount of solvent, a fine dispersion was prepared of the dose needed for the test. Thus, some of our test results were obtained on animals where a slurry of the compound was injected. These are so noted in Table I below. In addition, for some of the compounds, there was injected about 1 ml of solution, either in one single injection, or in 2 injections given a few hours apart of 1/2 ml each. These injections were initially given in 4 different dose levels for each new compound with 6 mice in each dose level. The tests covered a dose range from a low ineffective dose, to an upper dose level which produced some deaths within the time period of the experiment.

Sarcoma 180 [2] = assay: Large Sarcoma 180 regressions, injection on day 8 (Table II); assay type: in vivo, female Swiss white mice; conditions: single i.p. injection on day 8, H2O solution
Description: In addition to the day 1 injections described above, in a number of case injections were delayed until day 8 of tumor growth. In these cases the tumor was usually at least larger than 1/2 gm, as estimated by palpation. The animals were then injected and observed for a period of approximately 60 days. Activity was measured by the number of animals whose tumors had regressed to the vanishing point, while still allowing the animal to survive for this time period. Such test results are described in TABLE II below.

L1210 = assay: Confirmatory antitumor test at the National Cancer Institute, L1210 (Table IV); assay type: in vivo, Mice; conditions: daily injections days 1-9, i.p.
Source text: Samples of the malonato diammine and malonato ethylene diamine complexes of platinum(II) were submitted to the Drug Research and Development Branch of the National Cancer Institute for screening for antitumor activity against the L1210 tumor in mice. They confirm the activity of the compounds of the invention.

[3] = Hydrolysis by U.V./vis spectral and conductivity studies; assay type: physicochemical; conditions: recrystallization from boiling water with malonic acid
Source text: *U.V./via spectral and conductivity studies have shown that hydrolysis is negligible.

## O=C(O)CC(=O)O.[NH2-].[NH2-].[Pt+2] [Malonatodiammineplatinum (II), Malonatodiammineplatinum(II)]
Sarcoma 180 [1]; 10 mg/kg
  No. of Deaths: 0
  T/C: 76
Sarcoma 180 [1]; 15 mg/kg
  No. of Deaths: 0
  T/C: 38
Sarcoma 180 [1]; 20 mg/kg
  No. of Deaths: 0
  T/C: 64
Sarcoma 180 [1]; 25 mg/kg
  No. of Deaths: 0
  T/C: 31
Sarcoma 180 [1]; 30 mg/kg
  No. of Deaths: 1/6
  T/C: 7
Sarcoma 180 [1]; 40 mg/kg
  No. of Deaths: 6/6
Sarcoma 180 [1]; 50 mg/kg
  No. of Deaths: 5/6
  T/C: 1
Sarcoma 180 [1]; 60 mg/kg
  No. of Deaths: 6/6
Sarcoma 180 [2]; 14 mg/kg
  Deaths: 4
  Total Number of Regressions: 2
Sarcoma 180 [2]; 16 mg/kg
  Deaths: 3
  Total Number of Regressions: 3
Sarcoma 180 [2]; 18 mg/kg
  Deaths: 2
  Total Number of Regressions: 4
Sarcoma 180 [2]; 20 mg/kg
  Deaths: 1
  Total Number of Regressions: 5
L1210; 12.5 mg/kg
  % Increase in Lifespan: 115%
L1210; 25 mg/kg
  % Increase in Lifespan: 133%
L1210; 50 mg/kg
  % Increase in Lifespan: 163%
[3]
  hydrolysis: negligible
